This note sets out measurements from patent US11331369B2, “Endoparasitic depsipeptides” (Zoetis Services LLC, priority 2017, dated 2022).

For data set [1], the system named is 4th stage larvae (L4) of Dirofilaria immitis. Briefly: Dirofilaria immitis, L4 Stage (DiL4) In Vitro Assay. Particulars: Dirofilaria immitis, 72 h, read-out: DiL4 Minimum Effective Dose (MED), approximately 72 hours incubation; L4 larvae assessed for survival or paralysis. Type of data set: cell-based.
The nature of data set [2]: Canine pharmacokinetic (PK) study, single IV or oral dose. Particulars: dog; for Vd / clearance / half-life / Cmax: in vivo; for F: oral 1 mg/kg.
Data set [3] has as its system third stage larvae of Haemonchus contortus. As to the kind of experiment: Haemonchus contortus L3 (HcL3) Assay. The format is cell-based. Particulars: 96 h, read-out: HcL3 Minimum Effective Dose (MED).
Data set [4] relates to microfilariae of Dirofilaria immitis. Briefly: Dirofilaria immitis, Microfilaria (DiMF) In vitro Assay. Type of data set: cell-based. Particulars: 72 h, read-out: DiMF Minimum Effective Dose (MED), approximately 72 hours incubation, microfilariae assessed for survival or paralysis.

SMILES strings stand for the structures.

As for `CC(C)C[C@H]1C(=O)O[C@H](Cc2ccc(Cn3cccn3)cc2)C(=O)N(C)[C@@H](CC(C)C)C(=O)O[C@H](C)C(=O)N(C)[C@@H](CC(C)C)C(=O)O[C@H](Cc2ccc(Cn3cccn3)cc2)C(=O)N(C)[C@@H](CC(C)C)C(=O)O[C@H](C)C(=O)N1C` [Example 1b-23, (3S,6R,9S,12R,15S,18R,21S,24R)-3,9,15,21-tetraisobutyl-4,6,10,16,18,22-hexamethyl-12,24-bis[[4-(pyrazol-1-ylmethyl)phenyl]methyl]-1,7,13,19-tetraoxa-4,10,16,22-tetrazacyclotetracosane-2,5,8,11,14,17,20,23-octaone], the minimal effective concentration in data set [1] was in the range of 0.0001 to 0.001 µM. In data set [2] (iv, 0.2 mg/kg), the Vd is 8.54 L/kg; the clearance came to 14 mL/min/kg; the half-life – broadly, the time needed for the level to fall by half in the phase considered – was 27 h. In addition, in data set [2] (po, 1 mg/kg), the peak level (Cmax) was 205 ng/mL. The compound further gave a F in data set [2] of 34%. For the same compound, in data set [3], the minimal effective concentration is no more than 1 µM.
For `CC(C)C[C@H]1C(=O)O[C@H](Cc2ccc(CN3CCOc4ccccc43)cc2)C(=O)N(C)[C@@H](CC(C)C)C(=O)O[C@H](C)C(=O)N(C)[C@@H](CC(C)C)C(=O)O[C@H](Cc2ccc(CN3CCOc4ccccc43)cc2)C(=O)N(C)[C@@H](CC(C)C)C(=O)O[C@H](C)C(=O)N1C` [Example 9-26, (3S,6R,9S,12R,15S,18R,21S,24R)-6,18-bis(4-((2,3-dihydro-4H-benzo[b][1,4]oxazin-4-yl)methyl)benzyl)-3,9,15,21-tetraisobutyl-4,10,12,16,22,24-hexamethyl-1,7,13,19-tetraoxa-4,10,16,22-tetraazacyclotetracosan-2,5,8,11,14,17,20,23-octaone], the minimal effective concentration in data set [1] was 0.0001 to 0.001 µM. In data set [2] (iv, 0.2 mg/kg), this compound had a Vd of 0.6 L/kg, a clearance of 0.1 mL/min/kg and a half-life of 106 h. Also, in data set [2] (po, 1 mg/kg), the highest level (Cmax) was 71 ng/mL. Besides, in data set [2], the F was determined as 1%.
On to `CC(C)C[C@H]1C(=O)O[C@H](Cc2ccc(Cn3nccc3C3CC3)cc2)C(=O)N(C)[C@@H](CC(C)C)C(=O)O[C@H](C)C(=O)N(C)[C@@H](CC(C)C)C(=O)O[C@H](Cc2ccc(Cn3nccc3C3CC3)cc2)C(=O)N(C)[C@@H](CC(C)C)C(=O)O[C@H](C)C(=O)N1C` [Example 1b-108, (3S,6R,9S,12R,15S,18R,21S,24R)-6,18-bis(4-((5-cyclopropyl-1H-pyrazol-1-yl)methyl)benzyl)-3,9,15,21-tetraisobutyl-4,10,12,16,22,24-hexamethyl-1,7,13,19-tetraoxa-4,10,16,22-tetraazacyclotetracosan-2,5,8,11,14,17,20,23-octaone], for which the minimal effective concentration is 0.0001 to 0.001 µM in data set [1], 0.001 to 0.01 µM in data set [4] and no more than 1 µM in data set [3]. The compound further yielded a Vd in data set [2] (iv, 0.2 mg/kg) of 5.6 L/kg. In data set [2] (iv, 0.2 mg/kg), the clearance worked out at 6 mL/min/kg. Further, the half-life in data set [2] (iv, 0.2 mg/kg) was 51 h. Moreover, the Cmax (commonly the highest concentration seen after dosing) in data set [2] (po, 1 mg/kg) was found to be 178 ng/mL. In addition, the F in data set [2] came out at 30%.
Regarding `CC(C)C[C@H]1C(=O)O[C@H](Cc2ccc(Cn3nc(C(F)(F)F)cc3C(F)(F)F)cc2)C(=O)N(C)[C@@H](CC(C)C)C(=O)O[C@H](C)C(=O)N(C)[C@@H](CC(C)C)C(=O)O[C@H](Cc2ccc(Cn3nc(C(F)(F)F)cc3C(F)(F)F)cc2)C(=O)N(C)[C@@H](CC(C)C)C(=O)O[C@H](C)C(=O)N1C` [Example 1b-15, (3S,6R,9S,12R,15S,18R,21S,24R)-6,18-bis[(4-{[3,5-bis(trifluoromethyl)-1H-pyrazol-1-yl]methyl}phenyl)methyl]-4,10,12,16,22,24-hexamethyl-3,9,15,21-tetrakis(2-methylpropyl)-1,7,13,19-tetraoxa-4,10,16,22-tetraazacyclotetracosan-2,5,8,11,14,17,20,23-octaone], in data set [1], the minimal effective concentration is no more than 0.0001 µM. For the same compound, in data set [2] (iv, 0.2 mg/kg), the Vd was 0.32 L/kg, the clearance was determined as 0.05 mL/min/kg and the half-life is 67 h. Moreover, the Cmax in data set [2] (po, 1 mg/kg) turned out to be 5 ng/mL. Further, in data set [2], the F was found to be 0.2%. In addition, the minimal effective concentration in data set [4] lay within 0.01 to 0.1 µM.
In data set [2] (po, 1 mg/kg), `CC(C)C[C@H]1C(=O)O[C@H](Cc2ccc(Cn3cc(C4CC4)cn3)cc2)C(=O)N(C)[C@@H](CC(C)C)C(=O)O[C@H](C)C(=O)N(C)[C@@H](CC(C)C)C(=O)O[C@H](Cc2ccc(Cn3cc(C4CC4)cn3)cc2)C(=O)N(C)[C@@H](CC(C)C)C(=O)O[C@H](C)C(=O)N1C` [Example 1b-45, (3S,6R,9S,12R,15S,18R,21S,24R)-6,18-bis(4-((4-cyclopropyl-1H-pyrazol-1-yl)methyl)benzyl)-3,9,15,21-tetraisobutyl-4,10,12,16,22,24-hexamethyl-1,7,13,19-tetraoxa-4,10,16,22-tetraazacyclotetracosan-2,5,8,11,14,17,20,23-octaone] gave a Cmax of 127 ng/mL and a half-life of 104 h. Besides, the minimal effective concentration in data set [4] was in the range of 0.01 to 0.1 µM.
On to `CC(C)C[C@H]1C(=O)O[C@H](Cc2ccc(Cn3ccc(C(F)(F)F)n3)cc2)C(=O)N(C)[C@@H](CC(C)C)C(=O)O[C@H](C)C(=O)N(C)[C@@H](CC(C)C)C(=O)O[C@H](Cc2ccc(Cn3ccc(C(F)(F)F)n3)cc2)C(=O)N(C)[C@@H](CC(C)C)C(=O)O[C@H](C)C(=O)N1C` [Example 1b-69, (3S,6R,9S,12R,15S,18R,21S,24R)-3,9,15,21-tetraisobutyl-4,6,10,16,18,22-hexamethyl-12,24-bis(4-((3-(trifluoromethyl)-1H-pyrazol-1-yl)methyl)benzyl)-1,7,13,19-tetraoxa-4,10,16,22-tetraazacyclotetracosan-2,5,8,11,14,17,20,23-octaone], for which the minimal effective concentration in data set [1] fell in the range of 0.001 to 0.01 µM. In data set [2] (iv, 0.2 mg/kg), the Vd amounted to 3.81 L/kg, the clearance was 1 mL/min/kg and the half-life was 256 h. For the same compound, in data set [2] (po, 1 mg/kg), the highest level (Cmax) was 27 ng/mL. The F in data set [2] was determined as 5%. The minimal effective concentration in data set [4] was 0.01 to 0.1 µM.
In the case of `CC(C)C[C@H]1C(=O)O[C@H](Cc2ccc(Cn3ccc(-c4ccccc4)n3)cc2)C(=O)N(C)[C@@H](CC(C)C)C(=O)O[C@H](C)C(=O)N(C)[C@@H](CC(C)C)C(=O)O[C@H](Cc2ccc(Cn3ccc(-c4ccccc4)n3)cc2)C(=O)N(C)[C@@H](CC(C)C)C(=O)O[C@H](C)C(=O)N1C` [Example 1b-68, (3S,6R,9S,12R,15S,18R,21S,24R)-3,9,15,21-tetraisobutyl-4,6,10,16,18,22-hexamethyl-12,24-bis(4-((3-phenyl-1H-pyrazol-1-yl)methyl)benzyl)-1,7,13,19-tetraoxa-4,10,16,22-tetraazacyclotetracosan-2,5,8,11,14,17,20,23-octaone], the minimal effective concentration in data set [1] lay in the range of 0.001 to 0.01 µM. Also, in data set [2] (iv, 0.2 mg/kg), the Vd worked out at 7.58 L/kg, the clearance was found to be 1 mL/min/kg and the half-life was 163 h. The same compound showed a Cmax in data set [2] (po, 1 mg/kg) of 39 ng/mL. For the same compound, in data set [2], the F came out at 4%.
For the compound `CC(C)C[C@H]1C(=O)O[C@H](Cc2ccc(Cn3cc(OC(C)C)cn3)cc2)C(=O)N(C)[C@@H](CC(C)C)C(=O)O[C@H](C)C(=O)N(C)[C@@H](CC(C)C)C(=O)O[C@H](Cc2ccc(Cn3cc(OC(C)C)cn3)cc2)C(=O)N(C)[C@@H](CC(C)C)C(=O)O[C@H](C)C(=O)N1C` [Example 1b-19, (3S,6R,9S,12R,15S,18R,21S,24R)-3,9,15,21-tetraisobutyl-6,18-bis[[4-[(4-isopropoxypyrazol-1-yl)methyl]phenyl]methyl]-4,10,12,16,22,24-hexamethyl-1,7,13,19-tetraoxa-4,10,16,22-tetrazacyclotetracosane-2,5,8,11,14,17,20,23-octaone], the minimal effective concentration in data set [1] is 0.001 to 0.01 µM. In data set [2] (iv, 0.2 mg/kg), the Vd is 7.25 L/kg, the clearance was 2.4 mL/min/kg and the half-life is 87 h. In data set [2] (po, 1 mg/kg), this compound yielded a Cmax of 267 ng/mL. The compound also registered a F in data set [2] of 24%. Besides, in data set [4], the minimal effective concentration is 0.001 to 0.01 µM. The minimal effective concentration in data set [3] is 1 to 10 µM.
As to `CC(C)C[C@H]1C(=O)O[C@H](Cc2ccc(Cn3ncnc3CC(C)(C)C)cc2)C(=O)N(C)[C@@H](CC(C)C)C(=O)O[C@H](C)C(=O)N(C)[C@@H](CC(C)C)C(=O)O[C@H](Cc2ccc(Cn3ncnc3CC(C)(C)C)cc2)C(=O)N(C)[C@@H](CC(C)C)C(=O)O[C@H](C)C(=O)N1C` [Example 9-56, (3S,6R,9S,12R,15S,18R,21S,24R)-3,9,15,21-tetraisobutyl-4,6,10,16,18,22-hexamethyl-12,24-bis(4-((5-neopentyl-1H-1,2,4-triazol-1-yl)methyl)benzyl)-1,7,13,19-tetraoxa-4,10,16,22-tetraazacyclotetracosan-2,5,8,11,14,17,20,23-octaone], the minimal effective concentration in data set [1] lay within 0.001 to 0.01 µM; in data set [4], 0.001 to 0.01 µM; in data set [3], 1 to 10 µM.
`CCc1cc(C)n(Cc2ccc(C[C@H]3OC(=O)[C@H](CC(C)C)N(C)C(=O)[C@@H](C)OC(=O)[C@H](CC(C)C)N(C)C(=O)[C@@H](Cc4ccc(Cn5nc(C)cc5CC)cc4)OC(=O)[C@H](CC(C)C)N(C)C(=O)[C@@H](C)OC(=O)[C@H](CC(C)C)N(C)C3=O)cc2)n1` [Example 1b-186, (3S,6R,9S,12R,15S,18R,21S,24R)-6-(4-((5-ethyl-3-methyl-1H-pyrazol-1-yl)methyl)benzyl)-18-(4-((3-ethyl-5-methyl-1H-pyrazol-1-yl)methyl)benzyl)-3,9,15,21-tetraisobutyl-4,10,12,16,22,24-hexamethyl-1,7,13,19-tetraoxa-4,10,16,22-tetraazacyclotetracosan-2,5,8,11,14,17,20,23-octaone]: the minimal effective concentration in data set [1] fell in the range of 0.0001 to 0.001 µM; in data set [4], 0.01 to 0.1 µM; in data set [3], 1 to 10 µM.
